In patent US12622896B2, “Antiviral compounds, compositions and methods of use” (THE UNIVERSITY OF BRITISH COLUMBIA, priority 2019, dated 2026):
“And” between values parts separate entries of the source, which are not always exact repeats. Equal entries are not always repeated.

Legend:
HIV-1NL4-3 = assay: Preliminary anti-HIV screen: CEM-GXR reporter cells co-cultured with HIV-1NL4-3 infected cells, GFP by flow cytometry; details: for anti-HIV activity in the primary library screen: CEM-GXR cells, 1.25-10 μM, percent infected cells on day 3 (FIGS. 1A, 1B); for anti-HIV activity, rank within the analogue series: within the C-2 substituted thiophene or thiazole series
Experimental: (§2) The anti-HIV activity of the compounds was measured by a human T-cell reporter assay based on CEM-GXR cells. These cells express GFP due to the activation of the tat-dependent promoter upon HIV-1 infection, and the level of infection was monitored using Flow cytometric analysis (Guavasoft 2.2™ software, Guava HT8, Millipore™). Antiviral activity was evaluated in an assay that measures the inhibition of HIV-1 spread in a co-culture of CEM-GXR cells containing one percent of HIV-1 infected (GFP positive) cells.
The reporter CEM-GXR cells were infected by co-culture with one percent HIV-1NL4-3 infected (GFP positive) cells at the start of the assay (day 0). Individual compounds from the library was added in DMSO at varying concentrations to the culture in each microplate well immediately after the inoculation by infected cells. The final library compound concentration ranged from 1.25-10 μM and the final DMSO concentration was less than 0.1%. The percent of infected cells in the culture was determined by flow cytometry on day 3 using GFP expression as a readout.

CEM-GXR cells = assay: Guava ViaCount cytotoxicity on CEM-GXR cells; format: cell-based, human; details: for toxicity in the preliminary screen: at 5 μM, data not shown; for toxicity of thiophene analogues: C-2 CF3 thiophene analogues
Experimental: The ViaCount™ assay was performed with the Guava easyCyte 8HT™ flow cytometer according to the manufacturer's manual (Guava Technologies™, Inc., Hayward, CA, USA). In brief, CEM-GXR cells were seeded in 96-well plates 80000 cells/well in the absence or presence of compound in various concentrations. Twenty-four hours later, 25 μL of cell suspension was mixed with 225 μL of Guava ViaCount™ reagent, and the mixture was incubated for 5 min at room temperature. Sample acquisition and data analysis were performed with the selection of EasyFit™ analysis feature using the ViaCount™ software module.
The potential cytotoxic effect of the molecules on CEM-GXR cells viability was determined by the Guava ViaCount assay. This assay differentially stains viable and nonviable cells based on their permeability to the DNA-binding dyes and uses the forward scatter (FSC) properties to distinguish free nuclei and cellular debris from intact cells to quantify cell count. CEM-GXR cells were incubated with compound at concentrations ranging between 0.5 and 100 μM for 24 h.

HIV-1Bal strain = assay: PBMC infection assay, p24Gag ELISA day 11, HIV-1BaL; details: read-out: EC50 against HIV-1Bal in PBMC; three separate donors, one value per donor; p24 day 11; listed as GPS488
Experimental: Peripheral blood mononuclear cells (PBMC) were obtained from healthy HIV-negative donors following written informed consent and maintained in R10+ supplemented with 50 U/mL human IL-2. […] PBMC were activated with 5 μg/ml PHA and infected 3 days later with viral stocks at a multiplicity of infection (MOI) of 0.01. At 6 h post-infection, cells were washed and re-suspended in R10+ medium supplemented with 50 U/ml of IL-2 in the presence of GPS molecules or FTC as a control compound for an additional 11 days. The accumulation of p24Gag was quantified in culture supernatants at day 11 using an enzyme-linked immunosorbent assay (ELISA; Xpress Bio™), and the increase in p24Gag values was used as the measure of viral replication.

[1] = system: Bcl-x transcript splicing; assay: SR-protein induced Bcl-x splicing, X2.13 minigene in 293 cells, RT-PCR; format: cell-based; details: 10 μM
PBMCs = assay: PBMC viability by ViaCount assay over 11 days; format: cell-based, human; details: up to 11 days; for cellular toxicity in PBMCs: 0.1-10 μM range
[2] = system: (N)NRTI-resistant isolate (E00443); assay: Anti-HIV assay against (N)NRTI-resistant isolate E00443; details: Human immunodeficiency virus 1, read-out: EC50 against isolate E00443
Experimental: as §2

[3] = system: HIV-1 97USSN54 (subtype A, R5-tropic); assay: Anti-HIV viral spread assay in CEM-GXR cells, wild-type subtype A; format: cell-based; details: Human immunodeficiency virus 1, nonlinear regression, read-out: EC50 (WT Subtype A)
Excerpt: (§1) To validate these EC50 values, the anti-HIV drug, emtricitabine (FTC) was included in the anti-HIV assay as a positive control.

[4] = system: HIV-1IIIB (subtype B, X4-tropic); assay: Anti-HIV viral spread assay in CEM-GXR cells, wild-type subtype B; format: cell-based; details: Human immunodeficiency virus 1; CEM-GXR cells, viral spread, nonlinear regression; read-out: EC50 (WT Subtype B)
Excerpt: as §1

[5] = system: clinical isolate (11845 INI); assay: Anti-HIV assay against INI-resistant clinical isolate 11845; details: Human immunodeficiency virus 1, read-out: EC50 against 11845 clinical isolate
Experimental: as §2
(§3) This Maraviroc-resistant variant derived from a R5 strain of HIV-1BaL contains five mutations within the envelope V3 loop: A19T, L20F, T22A, E25D, and I26V.

[6] = system: PI-resistant isolate (2948); assay: Anti-HIV assay against PI-resistant isolate 2948; details: Human immunodeficiency virus 1, read-out: EC50 against PI-resistant isolate 2948
Experimental: as §2

[7] = system: Maraviroc-resistant variant of HIV-1BaL; assay: Anti-HIV assay against Maraviroc-resistant R5 strain; details: Human immunodeficiency virus 1, read-out: EC50 against Maraviroc-resistant HIV-1 strain
Experimental: as §2, §3

HIV = details: literature; cited from earlier work

O=C(Nc1nc2c(Cl)cccc2s1)c1ccc([N+](=O)[O-])s1 [5a, N-(4-Chlorobenzo[d]thiazol-2-yl)-5-nitrothiophene-2-carboxamide]
anti-HIV activity in the primary library screen (HIV-1NL4-3): significant activity

O=C(Nc1nc2ccc(OC(F)(F)F)cc2s1)c1ccc([N+](=O)[O-])s1 [5b, 5-Nitro-N-(6-(trifluoromethoxy)benzo[d]thiazol-2-yl)thiophene-2-carboxamide]
anti-HIV activity in the primary library screen (HIV-1NL4-3): significant activity | toxicity in the preliminary screen (CEM-GXR cells): toxicity

O=C(Nc1nc2ccc([N+](=O)[O-])cc2s1)c1ccc([N+](=O)[O-])s1 [5c, 5-Nitro-N-(6-nitrobenzo[d]thiazol-2-yl)thiophene-2-carboxamide]
anti-HIV activity in the primary library screen (HIV-1NL4-3): significant activity

O=C(Nc1nc2ccc(Cl)cc2s1)c1ccc([N+](=O)[O-])s1 [5d, N-(6-Chlorobenzo[d]thiazol-2-yl)-5-nitrothiophene-2-carboxamide]
anti-HIV activity in the primary library screen (HIV-1NL4-3): significant activity

O=C(Nc1nc2c(Cl)cc(Cl)cc2s1)c1ccc([N+](=O)[O-])s1 [5e, N-(4,6-Dichlorobenzo[d]thiazol-2-yl)-5-nitrothiophene-2-carboxamide]
anti-HIV activity in the primary library screen (HIV-1NL4-3): significant activity | toxicity in the preliminary screen (CEM-GXR cells): toxicity

O=C(Nc1nc2cc(Br)ccc2s1)c1ccc([N+](=O)[O-])s1 [5f, N-(5-Bromobenzo[d]thiazol-2-yl)-5-nitrothiophene-2-carboxamide]
anti-HIV activity in the primary library screen (HIV-1NL4-3): significant activity | toxicity in the preliminary screen (CEM-GXR cells): toxicity

O=C(Nc1nc2ccccc2s1)c1ccc([N+](=O)[O-])s1 [5g, N-(Benzo[d]thiazol-2-yl)-5-nitrothiophene-2-carboxamide]
anti-HIV activity in the primary library screen (HIV-1NL4-3): moderate to weak

O=C(Nc1nc2ccc(C(F)(F)F)cc2s1)c1ccc([N+](=O)[O-])s1 [5h, 5-Nitro-N-(6-(trifluoromethyl)benzo[d]thiazol-2-yl)thiophene-2-carboxamide]
anti-HIV activity in the primary library screen (HIV-1NL4-3): significant activity

CCOC(=O)c1ccc2nc(NC(=O)c3ccc([N+](=O)[O-])s3)sc2c1 [5i, Ethyl 2-(5-nitrothiophene-2-carboxamido)benzo[d]thiazole-6-carboxylate]
anti-HIV activity in the primary library screen (HIV-1NL4-3): moderate to weak

O=C(Nc1nc2ccc(F)cc2s1)c1ccc([N+](=O)[O-])s1 [5j, N-(6-Fluorobenzo[d]thiazol-2-yl)-5-nitrothiophene-2-carboxamide]
anti-HIV activity in the primary library screen (HIV-1NL4-3): moderate to weak

O=C(Nc1nc2ccc(Br)cc2s1)c1ccc([N+](=O)[O-])s1 [5k, N-(6-Bromobenzo[d]thiazol-2-yl)-5-nitrothiophene-2-carboxamide]
anti-HIV activity in the primary library screen (HIV-1NL4-3): moderate to weak

O=C(Nc1nc2c(Cl)cccc2s1)c1ccc(C(F)(F)F)s1 [8a, N-(4-Chlorobenzo[d]thiazol-2-yl)-5-(trifluoromethyl)thiophene-2-carboxamide]
anti-HIV activity, rank within the analogue series (HIV-1NL4-3): most active

O=C(Nc1nc2ccc([N+](=O)[O-])cc2s1)c1ccc(C(F)(F)F)s1 [8b, N-(6-nitrobenzo[d]thiazol-2-yl)-5-(trifluoromethyl)thiophene-2-carboxamide]
anti-HIV activity, rank within the analogue series (HIV-1NL4-3): most active | toxicity of thiophene analogues (CEM-GXR cells): toxicity at low micromolar concentrations

O=C(Nc1nc2ccc(C(F)(F)F)cc2s1)c1ccc(C(F)(F)F)s1 [8c, 5-(trifluoromethyl)-N-(6-(trifluoromethyl)benzo[d]thiazol-2-yl)thiophene-2-carboxamide]
anti-HIV activity, rank within the analogue series (HIV-1NL4-3): most active | toxicity of thiophene analogues (CEM-GXR cells): toxicity at low micromolar concentrations

O=C(Nc1nc2c(Cl)cccc2s1)c1cnc(C(F)(F)F)s1 [12a, N-(4-chlorobenzo[d]thiazol-2-yl)-2-(trifluoromethyl)thiazole-5-carboxamide]
EC50 (HIV-1Bal strain): 0.335 µM and 0.044 µM and 0.2 µM | generation of Bcl-xL splicing variant with SRSF1 or SRSF9 [1]: did not have any impact | abundance of Bcl-xS splice variant with SRSF2 ([1]; 24 hour): increased abundance | abundance of Bcl-xS splice variant with SRSF7 ([1]; 24 hour): decreased abundance | cellular toxicity in PBMCs at 1 μM (PBMCs): minimal toxicity | cellular toxicity in PBMCs (PBMCs): some cellular toxicity | EC50 [2]: 1.16 µM | EC50 [3]: 0.955 µM | EC50 [4]: 1.29 µM | EC50 [5]: 0.951 µM | anti-HIV activity, rank within the analogue series (HIV-1NL4-3): most active | EC50 [6]: 1.17 µM | EC50 [7]: 0.969 µM

O=C(Nc1nc2ccc([N+](=O)[O-])cc2s1)c1cnc(C(F)(F)F)s1 [12b, N-(6-nitrobenzo[d]thiazol-2-yl)-2-(trifluoromethyl)thiazole-5-carboxamide]
anti-HIV activity, rank within the analogue series (HIV-1NL4-3): most active

[N-]=[N+]=Nc1ccc2nc(NC(=O)c3cnc(C(F)(F)F)s3)sc2c1 [12e, N-(6-azidobenzo[d]thiazol-2-yl)-2-(trifluoromethyl)thiazole-5-carboxamide]
cellular toxicity in PBMCs at 1 μM (PBMCs): minimal toxicity | cellular toxicity in PBMCs (PBMCs): minimal toxicity | anti-HIV activity, rank within the analogue series (HIV-1NL4-3): most active

Nc1nc(=O)n([C@@H]2CS[C@H](CO)O2)cc1F [FTC, emtricitabine, reference compound]
EC50 [3]: 0.0263 µM | EC50 [4]: 0.0337 µM

O=[N+]([O-])c1ccc(C=Cc2ccc3ccccc3n2)s1 [compound 5350150, 2-(2-(5-nitro-2-thienyl)vinyl)quinolone]
HIV replication (HIV): blocked HIV replication
